Several values for one entry are separate records, joined by “and”; a condition that tells them apart may be missing. Identical values can stand only once. Like-named read-outs stand apart in the source and are kept apart here.
How the values were obtained:
human erythrocytes = molecular target: human erythrocytes; set-up: method as in PMID 2390055; details: read-out: Ki for inhibition of sugar uptake; cited from earlier work
[1] = molecular target: insulin-stimulated rat adipocytes; details: read-out: Ki for inhibition of sugar uptake; cited from earlier work
GLUT4 [2] = molecular target: T1, GLUT4 (Mus musculus, UniProt P14142); assay: Kinetic (Scatchard) analysis of indinavir effect on ATB-BMPA labeling of GLUT4 in LDM; type: binding; set-up: LDM contains small intracellular vesicles of GLUT4 and GLUT1; endogenous in cells; host or cells: low-density microsome fraction of differentiated 3T3-L1 adipocytes; details: for Kd: Scatchard plot
T1 sequence (P14142 1-509): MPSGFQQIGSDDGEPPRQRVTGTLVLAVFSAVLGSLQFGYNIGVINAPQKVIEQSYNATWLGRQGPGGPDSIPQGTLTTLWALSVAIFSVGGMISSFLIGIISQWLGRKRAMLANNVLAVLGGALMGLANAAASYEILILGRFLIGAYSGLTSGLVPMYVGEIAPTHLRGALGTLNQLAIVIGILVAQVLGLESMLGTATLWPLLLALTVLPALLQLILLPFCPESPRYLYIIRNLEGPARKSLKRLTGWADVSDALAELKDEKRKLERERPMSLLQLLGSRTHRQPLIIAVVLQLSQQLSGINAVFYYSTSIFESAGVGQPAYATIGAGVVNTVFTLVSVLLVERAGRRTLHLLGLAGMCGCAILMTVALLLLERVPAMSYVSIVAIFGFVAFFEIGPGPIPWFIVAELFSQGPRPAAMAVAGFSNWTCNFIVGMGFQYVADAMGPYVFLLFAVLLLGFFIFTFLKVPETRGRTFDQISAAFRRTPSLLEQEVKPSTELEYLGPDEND
Procedure: ATB-BMPA (50, 100, 200, 300 µM final concentration) was then added for an additional 10 min (5 min at room temperature, 5 min at 4 °C). Samples (110 µl final volume) were UV irradiated as described above. After removal of excess label with a desalting spin column, GLUT4 protein was immunoprecipitated from Thesit-solubilized LDM using a GLUT4 C-terminal directed antibody. ATB-BMPA-bound GLUT4 was analyzed by immunoblot analysis using an IR Dye 800 CW fluorescent streptavidin (LI-COR) and quantified with an Odyssey Infrared Imaging System. Identical samples that were not UV irradiated were used to correct for non-specific binding. The free ATB-BMPA concentration was assumed to be equal to the total ATB-BMPA concentration since the label concentration far exceeded the GLUT4 concentration. The data was expressed as Scatchard plots, bound/free versus bound. The Bmax and Kd values were determined from the horizontal intercept and the negative […], respectively.

GLUT4 [3] = molecular target: T1, GLUT4; assay: ATB-BMPA photolabeling of low-density microsomes (LDM) from 3T3-L1 adipocytes, GLUT4; type: binding; set-up: LDM contains small intracellular vesicles of GLUT4 and GLUT1; endogenous in cells; host or cells: low-density microsome fraction of differentiated 3T3-L1 adipocytes; details: for IC50: LDM 200 µg, biotinylated ATB-BMPA 50 µM, mean ± S.E., n = 3, read-out: Half-maximal inhibition (IC50) of ATB-BMPA binding to GLUT4; for Selectivity GLUT4 vs GLUT1, inhibition of ATB-BMPA labeling: LDM of 3T3-L1 adipocytes
Procedure: (§1) 3T3-L1 fibroblasts were grown to confluency and 48 h later subjected to differentiation as previously described. 3T3-L1 adipocytes were used 10 – 14 days after differentiation. Six culture dishes (15 cm) of adipocytes were serum-starved overnight, washed 3 times with ice-cold HES buffer (50 mM Hepes, pH 7.4, 255 mM sucrose, and 1 mM EDTA) containing Roche complete protease inhibitors (Roche Applied Science, Mannheim, Germany), scraped into 5 ml of the same buffer, and then homogenized with either a ball-bearing homogenizer or with a Potter-Elvehjem tissue grinder and a PTFE pestle. The low-density microsome (LDM) fraction was obtained by differential centrifugation as described previously. LDM were resuspended in phosphate buffer (25 mM phosphate, pH 7.4, 100 mM NaCl, 5% glycerol) containing complete Roche protease inhibitors.
(§2) Inhibitors were added to LDM (200 µg protein unless otherwise stated) for 10 min at room temperature. Samples (final volume 110 µl) were then incubated for 10 min at room temperature in the dark with biotinylated ATB-BMPA (50 µM final concentration) and then placed on ice prior to UV irradiation. Reactions were transferred to a 24-well low protein retention culture dish (Costar, Corning, NY) and then irradiated at room temperature 5 cm from a Green Spot UV lamp for 1 min (30 sec of light, followed by 30 sec of darkness, followed by 30 sec of light).
(§3) 20 µl of BSA (1.5 mg/ml final concentration) was added to the UV irradiated samples in a siliconized eppendorph tube. Excess biotinylated ATB-BMPA label was removed using a 0.5 ml Zeba Spin Desalting Column (Pierce). Biotinylated proteins were isolated essentially as described previously. Membranes were solubilized for 30 min at 4°C with 2% Thesit detergent buffer containing protease inhibitors. After centrifugation at 16,000 x g for 10 min, the supernatants were incubated overnight at 4°C with 50 µl of high capacity Streptavidin Agarose resin (Pierce). Precipitates were washed 3 times with 1% Thesit detergent buffer, twice with 0.1% Thesit detergent buffer, and once with phosphate buffer. Biotinylated proteins were eluted at 95 – 100°C for 20 min in 60 µl of 2X Laemmli Sample Buffer containing 40 mM dithiothreitol. Half of the eluted proteins were subjected to SDS-PAGE and transferred to nitrocellulose. Immunoblot analysis was carried out using GLUT4 and GLUT1 specific antibodies and quantified using an Odyssey Infrared Imaging System (LI-COR Biosciences, Lincoln, NE).

primary rat adipocytes [4] = assay: 2-Deoxyglucose uptake in insulin-stimulated primary rat adipocytes (predominantly GLUT4); type: cell-based; details: for Effect on 2-deoxyglucose uptake (GLUT4 transporter activity): primary rat adipocytes
Procedure: Adipocytes from epididymal fat pads were prepared from male Wistar rats weighing 150 – 200 g (from Charles River Laboratories, Inc., Wilmington, MA) as previously described. Adipocytes were stimulated with 1 µM insulin for 30 min at 37°C prior to use. 2-Deoxyglucose uptakes were performed by adding 80 µl of the cell suspension to 80 µl of Krebs-Ringer bicarbonate Hepes buffer (KRB) (120 mM NaCl, 4 mM KH2PO4, 1 mM MgSO4, 1 mM CaCl2, 10 mM NaHCO3, 200 nM adenosine, 30 mM Hepes, pH 7.4) containing 3% bovine serum albumin. HIV protease inhibitors / vehicle were added 5 min prior to the initiation of the reaction. Uptakes were initiated with the addition of 20 µl of [^3H]2-deoxyglucose (final 2-deoxyglucose concentration 50 µM; 0.5 µCi/assay). After 1 min at 37 °C, reactions were quenched with cytochalasin B to a final concentration of 0.4 mM. The cells were separated by spinning the reaction through dinonylphthalate as previously described and the intracellular radioactivity was quantified by liquid scintillation counting. Non-specific uptake measured in the presence of 20 µM cytochalasin B (Sigma) was subtracted from the experimental values.

3T3-L1 fibroblasts = assay: 2-Deoxyglucose uptake in 3T3-L1 fibroblasts (express only GLUT1); type: cell-based; details: for Effect on 2-deoxyglucose uptake (GLUT1 transporter activity): 3T3-L1 fibroblasts
Procedure: 3T3-L1 fibroblasts were grown to confluency in Dulbecco's modified Eagle's medium (DMEM) supplemented with 10% calf serum. The uptake of [^3H]2-Deoxyglucose (50 µM) was measured in Krebs-Ringer phosphate buffer for 6 min at 37°C as previously described. HIV protease inhibitors were added 6 min prior to the start of the reaction. Non-specific uptake measured in the presence of 20 µM cytochalasin B (Sigma) was subtracted from the experimental values.

GLUT1 = molecular target: T2, GLUT1 (Mus musculus, UniProt P17809); assay: ATB-BMPA photolabeling of low-density microsomes (LDM) from 3T3-L1 adipocytes, GLUT1; type: binding; details: for IC50: LDM 200 µg, biotinylated ATB-BMPA 50 µM, mean ± S.E., n = 3, read-out: Half-maximal inhibition (IC50) of ATB-BMPA binding to GLUT1
T2 construct: LDM contains small intracellular vesicles of GLUT4 and GLUT1; endogenous in cells; host or cells: low-density microsome fraction of differentiated 3T3-L1 adipocytes
T2 sequence (P17809 1-492): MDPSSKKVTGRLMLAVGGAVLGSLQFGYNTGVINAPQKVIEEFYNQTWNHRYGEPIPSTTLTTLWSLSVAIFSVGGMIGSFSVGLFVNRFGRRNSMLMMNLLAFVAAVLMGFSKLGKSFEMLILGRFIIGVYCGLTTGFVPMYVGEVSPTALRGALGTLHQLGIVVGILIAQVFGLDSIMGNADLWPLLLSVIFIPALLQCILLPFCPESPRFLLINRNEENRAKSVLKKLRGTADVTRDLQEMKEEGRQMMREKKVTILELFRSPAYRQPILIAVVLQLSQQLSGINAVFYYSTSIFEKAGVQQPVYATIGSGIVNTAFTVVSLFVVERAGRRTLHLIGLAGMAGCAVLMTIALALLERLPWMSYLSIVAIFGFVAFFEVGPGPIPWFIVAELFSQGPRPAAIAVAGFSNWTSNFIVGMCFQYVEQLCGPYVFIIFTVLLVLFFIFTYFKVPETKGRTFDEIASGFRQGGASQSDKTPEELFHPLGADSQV
Procedure: as §1, §2, §3

myotubes = tested on: myotubes; set-up: method as in PMID 1401073; details: read-out: IC50 for inhibition of 2-deoxy-glucose uptake into myotubes; cited from earlier work
primary rat adipocytes [5] = details: read-out: KI from inhibition of zero trans glucose uptake; cited from earlier work
GLUT4 [6] = molecular target: T1, GLUT4; details: Xenopus oocytes; read-out: Binding affinity (KI) for GLUT4 in the oocyte system; cited from earlier work
[7] = 10 µM PI (therapeutic concentration)

| SMILES | Effect on ATB-BMPA labeling of GLUT4 (GLUT4 [3]; [7]) | Effect on ATB-BMPA labeling of GLUT4 (GLUT4 [3]; 50 µM PI) | IC50 (GLUT4 [3]) [µM] | Effect on 2-deoxyglucose uptake (GLUT4 transporter activity) (primary rat adipocytes [4]; 10 µM PI) | Effect on 2-deoxyglucose uptake (GLUT4 transporter activity) (primary rat adipocytes [4]; 50 µM PI) | Effect on 2-deoxyglucose uptake (GLUT1 transporter activity) (3T3-L1 fibroblasts; 10 µM PI) | Effect on 2-deoxyglucose uptake (GLUT1 transporter activity) (3T3-L1 fibroblasts; 50 µM PI) | Effect on ATB-BMPA labeling of GLUT1 (GLUT1; [7]) | Effect on ATB-BMPA labeling of GLUT1 (GLUT1; 50 µM PI) | IC50 (GLUT1) | further results |
| --- | --- | --- | --- | --- | --- | --- | --- | --- | --- | --- | --- |
| O=C(CCCCC1SCC2NC(=O)NC21)NCCCCCC(=O)NCCOCCOCCOc1cc(C2(C(F)(F)F)N=N2)ccc1C(=O)NC(CO[C@H]1[C@H](O)[C@H](O)C(O)O[C@@H]1CO)CO[C@H]1[C@H](O)[C@H](O)C(O)O[C@@H]1CO (stereo partly drawn) [ATB-BMPA] |  |  |  |  |  |  |  |  |  |  | Ki (human erythrocytes): ~350 µM; Ki [1]: ~350 µM; Kd (GLUT4 [2]; 0 µM indinavir, read-out: Kd of ATB-BMPA binding to GLUT4): 75 µM; Kd (GLUT4 [2]; 10 µM indinavir, read-out: Kd (apparent) of ATB-BMPA binding to GLUT4): 152 µM; Kd (GLUT4 [2]; 20 µM indinavir, read-out: Kd (apparent) of ATB-BMPA binding to GLUT4): 218 µM; Kd (GLUT4 [2]; 50 µM indinavir, read-out: Kd (apparent) of ATB-BMPA binding to GLUT4): 510 µM |
| COC(=O)N[C@H](C(=O)N[C@@H](Cc1ccccc1)[C@@H](O)CN(Cc1ccc(-c2ccccn2)cc1)NC(=O)[C@@H](NC(=O)OC)C(C)(C)C)C(C)(C)C [Atazanavir, atazanavir] | no effect | affected | 66 ± 3.3 | no effect | affected | no effect | affected | no effect | affected | 59 ± 4.8 µM | Selectivity GLUT4 vs GLUT1, inhibition of ATB-BMPA labeling (GLUT4 [3]): non-specific GLUT inhibitor; Selectivity GLUT4 vs GLUT1, inhibition of ATB-BMPA labeling (GLUT4 [3]; listed as atazanavir): non-selective; Selectivity GLUT4 vs GLUT1, inhibition of glucose uptake (primary rat adipocytes [4]; primary rat adipocytes vs 3T3-L1 fibroblasts): non-specific GLUT inhibitor |
| C=C1[C@@H](C)[C@H]2[C@H](Cc3ccccc3)NC(=O)[C@]23OC(=O)/C=C/[C@H](O)CCC[C@@H](C)C/C=C/[C@H]3[C@@H]1O [CB, cytochalasin B] |  |  | 0.44 ± 0.07 |  |  |  |  |  |  | 0.35 µM and 0.36 µM | IC50 (myotubes): 0.4 µM |
| CC(C)(C)NC(=O)[C@@H]1CN(Cc2cccnc2)CCN1C[C@@H](O)C[C@@H](Cc1ccccc1)C(=O)N[C@H]1c2ccccc2C[C@H]1O [Indinavir, indinavir] |  |  | 20.7 ± 3.9 | reduced | affected | unaffected | affected but a lesser extent than GLUT4 |  |  | 178 ± 43 µM | IC50 (primary rat adipocytes [4]; Rattus norvegicus, Adipocyte, insulin-stimulated, 50 µM 2-deoxyglucose, read-out: IC50 for inhibition of 2-deoxyglucose uptake in primary rat adipocytes): 11 µM; Ki (primary rat adipocytes [5]): 15 µM; IC50 (3T3-L1 fibroblasts; Mus musculus, 3T3-L1, basal, 50 µM 2-deoxyglucose, read-out: IC50 for inhibition of 2-deoxyglucose uptake in 3T3-L1 fibroblasts): 241 µM; Ki (GLUT4 [6]): 50 µM; Ki (GLUT4 [2]; from Kd(apparent) = Kd (1 + [I]/KI), LDM 50 µg, read-out: KI, competitive inhibition of ATB-BMPA binding to the cytoplasmic glucose binding site of GLUT4): 8.2 µM |
| CC(C)c1nc(CN(C)C(=O)N[C@H](C(=O)N[C@@H](Cc2ccccc2)C[C@H](O)[C@H](Cc2ccccc2)NC(=O)OCc2cncs2)C(C)C)cs1 [Ritonavir, ritonavir] |  | affected |  |  | affected |  | affected |  | affected |  |  |
| CCC[C@@]1(CCc2ccccc2)CC(O)=C([C@H](CC)c2cccc(NS(=O)(=O)c3ccc(C(F)(F)F)cn3)c2)C(=O)O1 [Tipranavir] | no effect | no effect |  | no effect | no effect | no effect | no effect | no effect | no effect |  |  |

Source: PMC3179492, “HIV Protease Inhibitors Act as Competitive Inhibitors of the Cytoplasmic Glucose Binding Site of GLUTs with Differing Affinities for GLUT1 and GLUT4” (PLoS ONE, 2011)
